Measurements reported in US6524595B1, “Cyclodextrins preferentially substituted on their primary face by acid or amine functions” (priority 2000, dated 2003).

Key:
[1] = Cutaneous penetration test of caffeine on Franz cell (diffusion, release, storage); assay type: in vitro ADME, rat; settings: for average quantity of caffeine per unit surface diffused into the receptor chamber: 2 g deposited, 2.54 cm^2 Franz cell, PBS receptor
Procedure: The receptor chamber was constituted by a PBS buffer and antibiotics. Diffusion was monitored over time by sampling from the receptor chamber and analysis by high performance liquid chromatography. […] After rinsing the biopsy used in the diffusion study, it was kept in the Franz cell for 24 hours without donors. The quantity of active ingredient liberated in the PBS buffer was then analyzed by HPLC, to study the ability of the skin to temporarily retain the test solution (Release study).

[2] = test system: skin of rabbits; assay: Evaluation of primary dermal irritation in the rabbit; assay type: in vivo; settings: 10% in a 0.5% xanthan gel, undiluted, 0.5 ml
Procedure: Toxicological tests were carried out on the compound obtained in example 2a incorporated in an amount of 10% into a 0.5% xanthan gel, by occular evaluation in the rabbit, by a study of the absence of abnormal toxicity by a single oral administration to the rat and by a sensitization power study in the guinea-pig.
At the same time, a toxicological study was carried out under the same experimental conditions on commercial β-cyclodextrin incorporated in an amount of 10% into a 0.5% xanthan gel.
The preparations described above were applied undiluted in a dose of 0.5 ml to the skin of 3 rabbits using the method recommended by the OECD directive regarding the study of “The acute dermal irritant/corrosive effect”.
The products were classified in accordance with the criteria in the order of Feb. 1, 1982 published in the JORF [Official journal of the French Republic] on Feb. 2, 1982.

[3] = Vitamin E determination by HPLC (fluorescence); assay type: physicochemical
Procedure: The vitamin E content was determined by HPLC (fluorescence) and evaluated for each sample: […]

[4] = Aspect of the solution obtained / nanoparticle formation; assay type: physicochemical
Procedure: The solution was then added at a constant rate (1 ml/s) to distilled water (450 ml) with stirring to form a milky solution. […] The procedure of example 15 was followed but instead of using the compound obtained in example 2, a commercial β-cyclodextrin with an identical molar concentration was used.

[5] = Cutaneous penetration study of vitamin E on Franz cell (diffusion, release, storage); assay type: in vitro ADME, rat; settings: for percentage of vitamin E diffused: 2 g deposited, 2.54 cm^2 Franz cell, ethoxydiglycol receptor
Procedure: Cutaneous penetration studies were carried out on products 26-a, 26-b, 26-c and 26-d from example 26. […] The receptor chamber was constituted by ethoxydiglycol and antibiotics. Diffusion was monitored over time by sampling from the receptor chamber then HPLC analysis (fluorescence). […] After rinsing the biopsy used in the diffusion study, it was kept in the Franz cell for 24 hours without donors. The quantity of active ingredient liberated in the ethoxydiglycol was then analyzed by HPLC, underlining the ability of the skin to temporarily retain the test solution (release study).

[6] = biopsy in ethanolic solution 24 hours after release study
[7] = rinsed biopsy kept in Franz cell 24 hours without donors

Compound: Cn1c(=O)c2c(ncn2C)n(C)c1=O [Caffeine free, caffeine]
- average quantity of caffeine per unit surface diffused into the receptor chamber ([1]; 0 hours): 0 μg/cm^2
- average quantity of caffeine per unit surface diffused into the receptor chamber ([1]; 24 hours): 1783 μg/cm^2
- Storage (caffeine still present in the skin) [1, 6]: 26.57 ± 6.55 μg/cm2
- Release (caffeine liberated in the PBS buffer) [1, 7]: 286.8 ± 28.36 μg/cm2

Compound: (Lauroate)y-β-cyclodextrin [Example 2a]
- primary dermal irritation classification [2]: non irritant to the skin
- encapsulation of vitamin E (in words) [3]: encapsulated the vitamin E highly effectively

Compound: OC[C@H]1O[C@@H]2O[C@H]3[C@H](O)[C@@H](O)[C@@H](O[C@H]4[C@H](O)[C@@H](O)[C@@H](O[C@H]5[C@H](O)[C@@H](O)[C@@H](O[C@H]6[C@H](O)[C@@H](O)[C@@H](O[C@H]7[C@H](O)[C@@H](O)[C@@H](O[C@H]8[C@H](O)[C@@H](O)[C@@H](O[C@H]1[C@H](O)[C@H]2O)O[C@@H]8CO)O[C@@H]7CO)O[C@@H]6CO)O[C@@H]5CO)O[C@@H]4CO)O[C@@H]3CO [commercial β-cyclodextrin, β-cyclodextrin]
- solubility in water (in words) [4]: soluble in water
- nanoparticle formation (in words) ([4]; nanoparticle protocol with commercial β-cyclodextrin at identical molar concentration): no nanoparticles are formed
- primary dermal irritation classification [2]: slight irritant for the skin

Compound: Cc1c(C)c2c(c(C)c1O)CC[C@@](C)(CCC[C@H](C)CCC[C@H](C)CCCC(C)C)O2 [Example 26-d, vitamin E]
- percentage of vitamin E diffused ([5]; 0 hours): 0
- percentage of vitamin E diffused ([5]; 48 hours): 10.32%
- Storage (vitamin E still present in the skin) [5, 6]: 1.74 ± 0.24 % diffusion
- Release (vitamin E liberated in the ethoxydiglycol) [5, 7]: 3.33 ± 0.9 % diffusion
- Vitamin E determination (vitamin E content of sample) ([3]; 0.1% of vitamin E used): 0.0943%
